A short description of data set [1]: Preliminary study of oral bioavailability in four volunteers. Format: in vivo. The following applies: humans.
A short description of data set [2]: Phase I clinical trials, plasma concentration after oral administration. Format: in vivo, human. The following applies: oral administration of the 20 mg/day dose. The protocol: Fourteen healthy young volunteers were orally administered 20 mg/day of compound 2 for 28 days in two Phase I clinical trials. 34 patients with mild to moderate cognitive disturbance were orally administered doses of up to 30 mg/day of compound 2 for 28 days.
After oral administration of the 20 mg/day dose, peak plasma concentrations of 25-38 ng/mL were observed 15-30 minutes after dosing.

The subject of data set [3] is patients with cognitive disturbances secondary to cerebrovascular and traumatic brain injury. The data set can be described thus: Four-week open-label Phase II clinical trial of efficacy (MMSE, OCS, CCSE). Format: in vivo, human. To be noted: 10 mg orally t.i.d. for four weeks, 20 patients with mild cognitive disturbance. The procedure: The efficacy of 10 mg of compound 2 administered orally t.i.d. was investigated in a four-week open-label Phase II clinical trial at two centers. A total of 20 patients with cognitive disturbances secondary to cerebrovascular and traumatic brain injury were orally administered compound 2 during a Phase II clinical trial at a dose of 10 mg t.i.d. for a period of four weeks. At study entry, patients fulfilled specific criteria for mild cognitive disturbance.
Improvement on several tests, including the Mini Mental State Evaluation (MMSE) (Folstein et al., Psychiatric Research, 12, 189-198 (1975)), the Overall Clinical Impression Scale (OCS), which is a system developed by the National Institute of Mental Health: 12-CGI Clinical Global Impression ECDEU Assessment Manual for Psychopharmacology, E. Guyo, ed., Rockville Md., (217-222) (1976), and the Cognitive Capacity Screening Exam (CCSE) (Jacobs et al., Annals of Internal Medicine, 86, 40-46 (1977).

Each structure is given as a SMILES string. Square brackets hold non-standard residues; d marks the D form. Peptide text beside a SMILES is read from it. * marks the point of attachment. ξ: configuration not given here. PhAc = O=C(Cc1ccccc1)*; ξP = O=C(O)C1CCCN1

Consider `CCOC(=O)CNC(=O)C1CCCN1C(=O)Cc1ccccc1` (stereo not shown) [compound 2] (PhAc-[ξP]-Gly-OEt), for which the oral bioavailability entry in data set [1] is on record as “orally bioavailable”. Also, in data set [2], the peak plasma concentrations fell in the range of 25 to 38 ng/mL and the “time of peak plasma concentrations after dosing” value lay in the range of 15 to 30 min. The “treated patients who met the definition of efficacy response (statistically measured improvement in one or more of the tests by the end of the study)” value in data set [3] is reported as “over 75%”.

Source of the values: patent US20020187977A1, “Methods for restoring cognitive function following systemic stress” (priority 2001, published 2002).
